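Five concentrations, 48 hours, 96-well plates. The concentration for 50% growth inhibition is given as GI50.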 Activity calls are given as the source filed them. Cut-off read from the data, not from the text of the source: active = GI50 up to about 1.1 µM and inactive = higher.
Assays:
Experiment in all cases: inhibition of tumour cell growth, NCI panel, 48 h
SNB-19 = test system: SNB-19
Malme-3M = test system: Malme-3M
786-0 = test system: 786-0
SK-OV-3 = test system: SK-OV-3
COLO 205 = test system: COLO 205
UACC-62 = test system: UACC-62
SK-MEL-2 = test system: SK-MEL-2
A549 = test system: A549
IGROV-1 = test system: IGROV-1
HCT-116 = test system: HCT-116
ACHN = test system: ACHN
UO-31 = test system: UO-31
SNB-75 = test system: SNB-75
SK-MEL-5 = test system: SK-MEL-5
OVCAR-8 = test system: OVCAR-8
MDA-N = test system: MDA-N
NCI/ADR-RES = test system: NCI/ADR-RES
HOP-92 = test system: HOP-92
BT-549 = test system: BT-549

Measured: GI50

c1ccc(OC2=NC3=S(S2)SC(Oc2ccccc2)=N3)cc1
inactive: SNB-19 20.4 µM | Malme-3M 18.3 µM | 786-0 15.5 µM | SK-OV-3 28.2 µM | COLO 205 17.9 µM | UACC-62 18.9 µM | SK-MEL-2 13.6 µM | A549 21.6 µM | IGROV-1 20.8 µM | HCT-116 17.5 µM | ACHN 19.2 µM | UO-31 18.1 µM | SNB-75 24.3 µM | SK-MEL-5 18 µM | OVCAR-8 22.2 µM

COC(=O)NC1(NC(=O)OC)NC(=O)c2cc(OC)c(OC)cc2N1
inactive: SNB-19 55.5 µM | 786-0 32.6 µM | COLO 205 20.2 µM | UACC-62 30.1 µM | SK-MEL-2 19 µM | A549 61.8 µM | IGROV-1 32.1 µM | MDA-N 3.83 µM | HCT-116 29.8 µM | NCI/ADR-RES 31.5 µM | ACHN 64 µM | UO-31 40 µM | SK-MEL-5 32.3 µM | OVCAR-8 65.6 µM

CC(=O)Nc1ccc(C(=O)NN2C(=O)C(Cl)C2c2ccccc2)cc1 (configuration not stated)
inactive: SNB-19 > 100 µM | Malme-3M > 100 µM | 786-0 > 100 µM | SK-OV-3 > 100 µM | COLO 205 > 100 µM | HOP-92 > 100 µM | UACC-62 > 100 µM | SK-MEL-2 > 100 µM | A549 > 100 µM | IGROV-1 > 100 µM | HCT-116 > 100 µM | ACHN > 100 µM | UO-31 > 100 µM | SNB-75 > 100 µM | SK-MEL-5 > 100 µM | OVCAR-8 > 100 µM

Clc1ncc(Cl)c(Cl)n1
inactive: SNB-19 3.3 µM | Malme-3M 1.88 µM | 786-0 1.99 µM | SK-OV-3 4.7 µM | COLO 205 1.72 µM | HOP-92 1.81 µM | UACC-62 1.91 µM | SK-MEL-2 2.12 µM | A549 12.1 µM | IGROV-1 9.66 µM | MDA-N 3.37 µM | HCT-116 2.82 µM | NCI/ADR-RES 3.95 µM | ACHN 1.92 µM | UO-31 3.17 µM | SNB-75 2.84 µM | SK-MEL-5 5.05 µM | OVCAR-8 3.86 µM

N#CC(C#N)=C/C=C/c1c(Cl)cccc1Cl
inactive: SNB-19 3.78 µM | Malme-3M 1.73 µM | 786-0 1.71 µM | SK-OV-3 2.56 µM | COLO 205 1.73 µM | HOP-92 2.42 µM | UACC-62 1.5 µM | SK-MEL-2 1.7 µM | A549 2.75 µM | IGROV-1 2.16 µM | MDA-N 1.62 µM | HCT-116 1.34 µM | NCI/ADR-RES 1.96 µM | ACHN 1.6 µM | UO-31 1.84 µM | SNB-75 2.84 µM | SK-MEL-5 1.85 µM | OVCAR-8 1.53 µM

CSC(C1c2ccccc2N(c2ccc(C)cc2)c2[nH]c(=O)n(C)c(=O)c21)S(=O)(=O)c1ccc(C)cc1 (configuration not stated)
inactive: SNB-19 > 100 µM | Malme-3M > 100 µM | 786-0 > 100 µM | SK-OV-3 > 100 µM | COLO 205 > 100 µM | HOP-92 > 100 µM | UACC-62 > 100 µM | SK-MEL-2 > 100 µM | A549 > 100 µM | IGROV-1 > 100 µM | HCT-116 > 100 µM | UO-31 > 100 µM | SNB-75 > 100 µM | SK-MEL-5 > 100 µM | OVCAR-8 > 100 µM

CCOC(=O)N1c2ccccc2C(C)=CC(C)C1C (configuration not stated)
inactive: SNB-19 42.8 µM | Malme-3M 33.9 µM | 786-0 20.6 µM | SK-OV-3 22.4 µM | COLO 205 29.2 µM | UACC-62 32.6 µM | SK-MEL-2 32.7 µM | A549 22.6 µM | IGROV-1 44 µM | MDA-N 1.32 µM | HCT-116 6.73 µM | NCI/ADR-RES 25.8 µM | ACHN 49.7 µM | UO-31 55.7 µM | SNB-75 19.1 µM | SK-MEL-5 12.5 µM | OVCAR-8 17.6 µM

COc1cc(C(=O)Oc2c(C(C)=O)sc3c2c(=O)n(-c2ccccc2)c(=S)n3-c2ccccc2)cc(OC)c1OC
inactive: SNB-19 24.7 µM | Malme-3M 8.17 µM | 786-0 19.6 µM | SK-OV-3 31.6 µM | COLO 205 15.7 µM | HOP-92 19.3 µM | UACC-62 23.9 µM | A549 28.9 µM | IGROV-1 21 µM | MDA-N 22.8 µM | HCT-116 18.1 µM | NCI/ADR-RES 15.4 µM | ACHN 16.6 µM | SNB-75 19.8 µM | SK-MEL-5 17.4 µM | OVCAR-8 18.8 µM

O=[N+]([O-])/C(C(Cl)=C(Cl)Cl)=C1\NCCS1
inactive: SNB-19 > 100 µM | Malme-3M 19.7 µM | 786-0 36.1 µM | SK-OV-3 > 100 µM | BT-549 70 µM | COLO 205 40.1 µM | UACC-62 39.7 µM | A549 > 100 µM | IGROV-1 62.4 µM | HCT-116 43.3 µM | NCI/ADR-RES 30.2 µM | ACHN 61 µM | UO-31 41.1 µM | SK-MEL-5 > 100 µM | OVCAR-8 47.2 µM

CC(C)CC(NC(=O)C(C)(CI)Cc1ccccc1)C(=O)Nc1ccccc1 (configuration not stated)
inactive: SNB-19 > 100 µM | Malme-3M > 100 µM | 786-0 > 100 µM | SK-OV-3 > 100 µM | COLO 205 > 100 µM | HOP-92 > 100 µM | UACC-62 > 100 µM | SK-MEL-2 > 100 µM | A549 > 100 µM | IGROV-1 > 100 µM | MDA-N > 100 µM | HCT-116 31 µM | NCI/ADR-RES > 100 µM | ACHN > 100 µM | UO-31 > 100 µM | SNB-75 86.5 µM | SK-MEL-5 > 100 µM | OVCAR-8 > 100 µM

Cc1cc(NCCCCCCNc2cc(C)nc3cc(N(C)C)ccc23)c2ccc(N(C)C)cc2n1
inactive: SNB-19 1.67 µM | Malme-3M 13.2 µM | 786-0 52.4 µM | SK-OV-3 12.3 µM | UACC-62 9.2 µM | SK-MEL-2 32.2 µM | A549 > 10 µM | HCT-116 10.7 µM | ACHN 99.8 µM | UO-31 88.7 µM | SNB-75 10 µM | SK-MEL-5 18.2 µM | OVCAR-8 31 µM

COC(=O)c1cc2ccccc2c2nc3ccccc3c(Cl)c12
inactive: SNB-19 37.4 µM | Malme-3M > 100 µM | 786-0 > 100 µM | COLO 205 > 100 µM | HOP-92 > 100 µM | UACC-62 > 100 µM | SK-MEL-2 > 100 µM | A549 > 100 µM | IGROV-1 > 100 µM | HCT-116 87.1 µM | ACHN > 100 µM | SNB-75 98.4 µM | SK-MEL-5 > 100 µM | OVCAR-8 > 100 µM

O=C(O)/C=C/c1ccc2c(c1)CC1(Cc3ccccc3C1)C2
inactive: Malme-3M 78.2 µM | 786-0 > 100 µM | SK-OV-3 > 100 µM | COLO 205 27.8 µM | HOP-92 52.2 µM | UACC-62 > 100 µM | SK-MEL-2 39.3 µM | A549 34.8 µM | IGROV-1 56.4 µM | MDA-N > 100 µM | HCT-116 23 µM | NCI/ADR-RES 76.7 µM | ACHN 41.6 µM | UO-31 80 µM | SK-MEL-5 43.5 µM | OVCAR-8 66.1 µM

CC(=O)C1=C(C)NC(=C(C#N)C#N)C(C#N)=C1
inactive: SNB-19 > 100 µM | Malme-3M > 100 µM | 786-0 > 100 µM | COLO 205 > 100 µM | HOP-92 > 100 µM | UACC-62 > 100 µM | SK-MEL-2 > 100 µM | A549 > 100 µM | IGROV-1 > 100 µM | MDA-N > 100 µM | HCT-116 > 100 µM | NCI/ADR-RES > 100 µM | ACHN > 100 µM | UO-31 > 100 µM | SNB-75 > 100 µM | SK-MEL-5 > 100 µM | OVCAR-8 > 100 µM

CC(O)CCCOC(c1ccccc1)(c1ccccc1)c1ccccc1 (configuration not stated)
inactive: SNB-19 16 µM | Malme-3M 14.5 µM | 786-0 16.5 µM | SK-OV-3 16.6 µM | COLO 205 20.1 µM | HOP-92 12.6 µM | UACC-62 13.9 µM | SK-MEL-2 15.1 µM | A549 13.8 µM | IGROV-1 15.7 µM | MDA-N 16.8 µM | HCT-116 13.8 µM | NCI/ADR-RES 11.7 µM | ACHN 14.6 µM | UO-31 13.7 µM | SNB-75 12.6 µM | SK-MEL-5 11.8 µM | OVCAR-8 14.7 µM

CN1CCN(c2nc(N)c(Br)c(Cl)n2)CC1
inactive: SNB-19 > 100 µM | Malme-3M > 100 µM | 786-0 > 100 µM | SK-OV-3 > 100 µM | COLO 205 > 100 µM | HOP-92 54.3 µM | UACC-62 > 100 µM | SK-MEL-2 > 100 µM | A549 > 100 µM | IGROV-1 > 100 µM | ACHN > 100 µM | UO-31 > 100 µM | SNB-75 58.3 µM | SK-MEL-5 > 100 µM | OVCAR-8 > 100 µM

C=C(C)C(O)CCC1(C)C=Cc2c(c(C)cc3c2[nH]c2ccccc23)O1 (configuration not stated)
inactive: SNB-19 15.2 µM | Malme-3M 11.3 µM | 786-0 4.91 µM | SK-OV-3 23.3 µM | COLO 205 4.65 µM | HOP-92 7.01 µM | UACC-62 4.8 µM | A549 7.4 µM | IGROV-1 17.1 µM | MDA-N 3.58 µM | HCT-116 13.2 µM | NCI/ADR-RES 8.81 µM | ACHN 4.86 µM | UO-31 6.87 µM | SNB-75 3.3 µM | SK-MEL-5 7.62 µM | OVCAR-8 9.08 µM
